Measured values from US5981777A, “Recovery of taxanes from plant material” (The Regents of the University of California, priority 1997, dated 1999).
pIC50: −log10 of the molar value.

Tests used:
[1] = system: polyclonal anti-taxane (TA11) antibody; test: indirect competitive immunoassay, cross-reactivity with TA11; conditions: > x = highest concentration tested (270 or 300 ng/ml), read-out: IC50 TA11 (concentration of analyte required to inhibit antibody binding to solid phase antigen by 50%)
Source text: (§1) A preferred antibody is TA14 available from Hawaii Biotechnology Group is particularly useful for this purpose. The cross-reactivity of polyclonal anti-taxane (TA11) and taxol- (TA12), baccatin III- (TA13), or "generic taxane"-specific (TA14) monoclonal antibodies as determined by indirect competitive immunoassays is set forth in Table 1. All of these antibodies are available from Hawaii Biotechnology group.
(§2) ^a Crossreactivity is expressed as the concentration of analyte
(§3) required to inhibit antibody binding to solid phase antigen by 50%
(§4) (IC50) in the indicated competitive immunoassay. Values expressed as
(§5) > x represent the highest concentration tested (either 270 or 300 ng/ml).

[2] = system: taxol-specific (TA12) monoclonal antibody; test: indirect competitive immunoassay, cross-reactivity with TA12; set-up: species or system mouse; conditions: > x = highest concentration tested (270 or 300 ng/ml), read-out: IC50 TA12 (concentration of analyte required to inhibit antibody binding to solid phase antigen by 50%)
Source text: as §1, §2, §3, §4, §5

[3] = system: baccatin III-specific (TA13) monoclonal antibody; test: indirect competitive immunoassay, cross-reactivity with TA13; set-up: species or system mouse; conditions: > x = highest concentration tested (270 or 300 ng/ml), read-out: IC50 TA13 (concentration of analyte required to inhibit antibody binding to solid phase antigen by 50%)
Source text: as §1, §2, §3, §4, §5

[4] = system: "generic taxane"-specific (TA14) monoclonal antibody; test: indirect competitive immunoassay, cross-reactivity with TA14; set-up: species or system mouse; conditions: > x = highest concentration tested (270 or 300 ng/ml), read-out: IC50 TA14 (concentration of analyte required to inhibit antibody binding to solid phase antigen by 50%)
Source text: as §1, §2, §3, §4, §5

[5] = system: taxol-specific (TA12) monoclonal antibody; conditions: in words; cited from earlier work
[6] = system: "generic taxane"-specific (TA14) monoclonal antibody; conditions: in words; Kingston et al. J. Nat. Prod. 53:1-12 (1990); cited from earlier work
[7] = system: baccatin III-specific (TA13) monoclonal antibody; conditions: in words; cited from earlier work

Q: With `CC(=O)O[C@H]1C(=O)[C@]2(C)[C@H](O)C[C@H]3OC[C@@]3(OC(C)=O)[C@H]2[C@H](OC(=O)c2ccccc2)[C@]2(O)C[C@H](OC(=O)[C@H](O)[C@@H](NC(=O)c3ccccc3)c3ccccc3)C(C)=C1C2(C)C` [7-epi-taxol] as the molecule, how does the pIC50 [1] read?
A: 8.10

Q: And the pIC50 [2]?
A: 7.10

Q: And the pIC50 [3]?
A: < 6.50

Q: And the pIC50 [4]?
A: 7.30

Q: What does the source list for `CC(=O)O[C@H]1C(=O)[C@@]2(C)[C@H]([C@H](OC(=O)c3ccccc3)[C@]3(O)C[C@H](OC(=O)[C@H](O)[C@@H](NC(=O)c4ccccc4)c4ccccc4)C(C)=C1C3(C)C)[C@]1(OC(C)=O)CO[C@@H]1C[C@@H]2O` [Taxol ® (paclitaxel), paclitaxel]?
A: pIC50 [1]: 9.30; reactivity with TA12 [5]: specifically reactive; cross-reaction with TA14 [6]: cross reacts

Q: For `CC(=O)O[C@H]1C(=O)[C@]2(C)[C@H](O)C[C@H]3OC[C@@]3(OC(C)=O)[C@H]2[C@H](OC(=O)c2ccccc2)[C@]2(O)C[C@H](O)C(C)=C1C2(C)C` [baccatin V], which “binding to TA13” value [7] is on record?
A: binds with equal affinity

Q: What does the source list for `CC(=O)O[C@@]12CO[C@@H]1C[C@H](O)[C@@]1(C)C(=O)[C@H](O)C3=C(C)[C@@H](OC(=O)[C@H](O)[C@@H](NC(=O)OC(C)(C)C)c4ccccc4)C[C@@](O)([C@@H](OC(=O)c4ccccc4)[C@H]21)C3(C)C` [Taxotere ® (docetaxel), docetaxel]?
A: pIC50 [2]: < 6.50; pIC50 [3]: < 6.50; pIC50 [4]: 8.00

Q: With `CC(=O)O[C@@]12CO[C@@H]1C[C@@H](O)[C@@]1(C)C(=O)[C@H](O)C3=C(C)[C@@H](OC(=O)[C@H](O)[C@@H](NC(=O)c4ccccc4)c4ccccc4)C[C@@](O)([C@@H](OC(=O)c4ccccc4)[C@H]21)C3(C)C` [7-epi-10-deacetyltaxol] as the molecule, how does the pIC50 [1] read?
A: 8.92

Q: And the pIC50 [2]?
A: 7.60

Q: What about the pIC50 [3] of the same molecule?
A: < 6.48

Q: And the pIC50 [4]?
A: 7.82

Q: With `CC(=O)O[C@@]12CO[C@@H]1C[C@H](O[C@@H]1OC[C@@H](O)[C@H](O)[C@H]1O)[C@@]1(C)C(=O)[C@H](O)C3=C(C)[C@@H](OC(=O)[C@H](O)[C@@H](NC(=O)c4ccccc4)c4ccccc4)C[C@@](O)([C@@H](OC(=O)c4ccccc4)[C@H]21)C3(C)C` [7-xylosyl-10-deacetyltaxol] as the molecule, how does the pIC50 [1] read?
A: 8.74

Q: What does the source list for `CC(=O)O[C@H]1C(=O)[C@@]2(C)[C@H]([C@H](OC(=O)c3ccccc3)[C@]3(O)C[C@H](O)C(C)=C1C3(C)C)[C@]1(OC(C)=O)CO[C@@H]1C[C@@H]2O` [baccatin III]?
A: binding to TA13 [7]: binds with equal affinity; cross-reaction with TA14 [6]: cross reacts

Q: For `CC(=O)O[C@@]12CO[C@@H]1C[C@H](O)[C@@]1(C)C(=O)[C@H](O)C3=C(C)[C@@H](O)C[C@@](O)([C@@H](OC(=O)c4ccccc4)[C@H]21)C3(C)C` [10-deacetylbaccatin III], which “cross-reaction with TA14” value [6] is on record?
A: cross reacts

Q: With `CC(=O)O[C@@]12CO[C@@H]1C[C@H](O)[C@@]1(C)C(=O)[C@H](O)C3=C(C)[C@@H](OC(=O)[C@H](O)[C@@H](NC(=O)c4ccccc4)c4ccccc4)C[C@@](O)([C@@H](OC(=O)c4ccccc4)[C@H]21)C3(C)C` [10-deacelyltaxol] as the molecule, how does the pIC50 [1] read?
A: 9.15

Q: With `C/C=C(\C)C(=O)N[C@@H](c1ccccc1)[C@@H](O)C(=O)O[C@H]1C[C@@]2(O)[C@@H](OC(=O)c3ccccc3)[C@@H]3[C@]4(OC(C)=O)CO[C@@H]4C[C@H](O)[C@@]3(C)C(=O)[C@H](OC(C)=O)C(=C1C)C2(C)C` [cephalomannine] as the molecule, how does the pIC50 [1] read?
A: 9.00

Q: And the “cross-reaction with TA14” value [6]?
A: cross reacts

Q: With `CC(=O)O[C@@]12CO[C@@H]1C[C@@H](O)[C@@]1(C)C(=O)[C@H](O)C3=C(C)[C@@H](O)C[C@@](O)([C@@H](OC(=O)c4ccccc4)[C@H]21)C3(C)C` [7-epi-10-deacetylbaccatin III] as the molecule, how does the pIC50 [1] read?
A: 7.47

Q: And the pIC50 [2]?
A: < 6.30
